The source of these data is patent publication US8828997B2, “2,3-dihydro-1H-imidazo(1,2-a)pyrimidin-5-one derivatives, preparation thereof, and pharmaceutical use thereof” (Sanofi, priority 2009, dated 2014).

The subject of this experiment is AKT protein phosphorylated on serine 473 (P-AKT-S473) in PC3 human prostate carcinoma cells. Nature of the experiment: pAKT expression in PC3 human prostate carcinoma cells measured by MSD Multi-spot Biomarker detection (test B). The class given is cell-based. The conditions noted are these: Homo sapiens, PC-3, P-AKT-S473, PC3 cells, MSD sandwich immunoassay, 1 to 2 h incubation, absolute IC50. The procedure:
The inhibitory activity of the molecules on AKT phosphorylation is measured either by western blotting using the technique described below, or by the MSD Multi-spot Biomarker detection technique from Meso Scale Discovery also described below.
Study of pAKT Expression in PC3 Human Prostate Carcinoma Cells Measured by the MSD Multi-Spot Biomarker Detection Technique from Meso Scale Discovery (Test B):
This test is based on measuring the expression of the AKT protein phosphorylated on serine 473 (P-AKT-S473), in the PC3 human prostate carcinoma line, by means of the technique based on a sandwich immunoassay using the MSD Multi-spot Biomarker Detection kit from Meso Scale Discovery: phospho-Akt (Ser473) whole cell lysate kit (#K151CAD) or phospho-Akt (Ser473)/Total Akt whole cell lysate kit (#K151OOD). The primary antibody specific for P-AKT-S473 (Kit #K151CAD) is coated onto an electrode in each well of the 96-well plates of the MSD kit: after the addition of a protein lysate to each well, the signal is visualised by adding a secondary detection antibody labelled with an electrochemoluminescent compound. The procedure followed is that described in the kit.
On day 1, the PC3 cells are seeded into 96-well plates (TPP, #92096) at the concentration of 35 000 cells/well in 200 μl of DMEM medium (DMEM Gibco #11960-044) containing 10% of foetal calf serum (FCS Gibco, #10500-056) and 1% glutamine (L-Glu Gibco #25030-024), and incubated at 37° C., 5% CO2, overnight.
On day 2, the cells are incubated in the presence or absence of the test products for 1 to 2 h at 37° C. in the presence of 5% of CO2. The molecules, diluted in dimethyl sulphoxide (DMSO Sigma #D2650), are added from a 20-times concentrated stock solution, the final percentage of DMSO being 0.1%. The molecules are tested either at a single concentration of less than or equal to 10 μM, or at increasing concentrations in a range that can extend from less than 1 nM to 10 μM.
After this incubation, the cells are lysed for the preparation of the proteins. For this, after the culture medium has been drawn off, 50 μl of complete Tris Lysis Buffer of the MSD kit containing the protease and phosphatase inhibitor solutions are added to the wells and the cells are lysed for 1 h at 4° C. with shaking. At this stage, the plates containing the lysates can be stored at −20° C. or at −80° C.
The wells of the 96-well plates of the MSD kit are saturated for 1 h at ambient temperature with the blocking solution of the MSD kit. Four washes are carried out with 150 μl of Tris Wash Buffer of the MSD kit. The lysates previously prepared are transferred into the 96-well multi-spot plates of the MSD kit and incubated for 1 h at ambient temperature, with shaking. Four washes are carried out with 150 μl of Tris Wash Buffer of the MSD kit. 25 μl of the MSD sulfo-tag detection antibody solution are added to the wells and incubated for 1 h at ambient temperature, with shaking. Four washes are carried out with 150 μl of Tris Wash Buffer of the MSD kit. 150 μl of Read Buffer of the MSD kit are added to the wells and the plates are read immediately on the S12400 instrument from Meso Scale Discovery.
The instrument measures a signal for each well. Wells without cells and containing the lysis buffer serve to determine the background noise that will be subtracted from all the measurements (min). The wells containing cells in the absence of product and in the presence of 0.1% DMSO are considered to be the 100% signal (max). The percentage inhibition is calculated for each concentration of test product according to the following formula: (1-((test−min)/(max−min)))×100.
The activity of the product is translated to IC50, obtained from a dose-response curve of the various concentrations tested and representing the dose giving 50% specific inhibition (absolute IC50). 2 independent experiments make it possible to calculate the mean of the IC50 values.

Broadly, the IC50 is the concentration that inhibits the measured activity by half. Low values mean greater potency in that assay, high ones weaker potency in that assay. The compound `COc1ccc(CCN2c3nc(N4CCOCC4)cc(=O)n3C[C@@]2(C)C(F)(F)F)cc1` [Example 1, (S)-1-[2-(4-Methoxyphenyl)ethyl]-2-methyl-7-morpholin-4-yl-2-trifluoromethyl-2,3-dihydro-1H-imidazo[1,2-a]pyrimidin-5-one] returned a half-inhibitory concentration (IC50) of 3 nM.
